Test results reported in patent US5104895A, “Platinum(II) complexes, their preparation and use as anti-tumor agents” (Boehringer Mannheim Italia S.p.A., priority 1988, dated 1992).

Assays:
tumours in patients = details: human, in vivo; cited from earlier work
[1] = cited from earlier work
M5076 ovarian carcinoma = experiment: advanced M 5076 ovarian carcinoma in female mice; format: in vivo
From the text: (§1) "In vivo" experiments including: a murine leukaemia and murine L1210 leukaemia / cisplatin resistant (i.p. drug administration day 1 after i.p. injection of 10^6 tumour cells day 0); b) advanced M 5076 ovarian carcinoma in female mice (i.m. injection of 5.10^5 cell day 0, drug administration q7d×3) are based on classical models that allow a preliminary evaluation of efficacy and toxicity of the novel agent in comparison with a well-stated reference drug. The evaluated parameters are toxic death, median survival time (T/C %) and long term survivals (60 days).

murine L1210 leukaemia = experiment: in vivo murine L1210 leukaemia
From the text: as §1

L1210 resistant line = experiment: in vivo murine L1210 leukaemia / cisplatin resistant
From the text: as §1

cervix epithelioma = experiment: MTT assay, cervix epithelioid carcinoma; format: cell-based, human; details: in vitro
From the text: The "in vitro" testing procedure has been based on the "MTT assay on human tumor cell lines" (T. Mosmann, J Immunol. Meth., 65, 55, 1983). According to N.C.I screening program for new anticancer drugs, the evaluation of the anti-tumour activity has been performed against groups of cell lines each representing a major category of human malignancy. Human cell (for ex. cervix epithelioid carcinoma, melanoma, fibrosarcoma and vulvar leiomyosarcoma cultures have been adapted to grow in complete RPMI 1640 medium; the compounds were added to 24 hours cultures and incubated for 72 and 160 hours.

[2] = cisplatin at 7 and 10 mg/kg, i.p. day 1

Molecule: N.N.O=C([O-])C1(C(=O)[O-])CCC1.[Pt+2] [carboplatin]
- activity against lung tumors (non-small cell), osteogenic sarcoma, Hodgkins lymphoma, melanoma and mammary tumors (tumours in patients): a certain, even if limited, activity
- nephrotoxicity compared with cis-platin ([1]; human, in vivo): less nephrotoxic than cis-platin

Molecule: N.N.[Cl][Pt][Cl] [cisplatin, cis-diammino-dichloro-platinum, reference compound]
- body weight change (M5076 ovarian carcinoma; equieffective dose levels): marked body weight decrease
- long term survivals (60 days) (murine L1210 leukaemia; [2]): 1/10
- median survival time (T/C %) (murine L1210 leukaemia; [2]): 162%
- activity against head and neck squamous cell carcinoma and further listed tumors (tumours in patients): a certain activity
- activity against lung tumors (non-small cell), osteogenic sarcoma, Hodgkins lymphoma, melanoma and mammary tumors (tumours in patients): a certain, even if limited, activity
- antitumour activity in patients (tumours in patients): particularly effective in the treatment of genito-urinary tumours, of neck and head tumours
- side-effects ([1]; following cisplatin use): important gastrointestinal and renal side-effects, haematologic and neurologic complications (ototoxicity)
- median survival time (T/C %) (L1210 resistant line): 115%

Molecule: NCCN.O=C([O-])C(CCOCCOCCO)C(=O)[O-].[Pt+2] [reference compound, cis(1,2-diaminoethane)-(8-hydroxy 3,6-dioxaoctane-1-yl-malonate) platinum (II), reference compound]
- toxicity (murine L1210 leukaemia; at the higher dose level): heavily toxic

Molecule: (2R, 3R, 11R, 12R)-1,4-7,10,13,16-hexaoxacyclooctadecane-2,3,11,12-tetracarboxylate-bis- [compound B, (2R, 3R, 11R, 12R)-1,4-7,10,13,16-hexaoxacyclooctadecane-2,3,11,12-tetracarboxylate-bis-[cis(trans-d,l,-1,2)diamino-cyclohexane)-platinum(II)]]
- tumour growth inhibition potency (M5076 ovarian carcinoma; drug administration q7d×3): comparable with that of cisplatin
- body weight change (M5076 ovarian carcinoma; mouse, in vivo): normal body weight increase
- median survival time (T/C %) (murine L1210 leukaemia; 20 mg/kg dose level, i.p. day 1): 170%
- long term survivor values (murine L1210 leukaemia; 20 mg/kg dose level, 60 days): 2
- median survival time (T/C %) (murine L1210 leukaemia; 120 mg/kg): 200%
- toxic deaths (murine L1210 leukaemia; 120 mg/kg): 2/10
- long term survivors (murine L1210 leukaemia; 120 mg/kg, 60 days): 2/10
- DL100 (murine L1210 leukaemia; i.p.): over 200 mg/kg
- cross resistance with cisplatin (L1210 resistant line): Lack of cross resistance with cisplatin
- median survival time (T/C %) (L1210 resistant line): over 160%

Molecule: cis[(1,1-diaminomethyl-cyclohexane)-3,3-(1,5,8,11,14,17-hexaoxacyclononadecane)cyclobutane]-1,1-dicarboxylate [compound D]
- antitumour activity compared with cisplatin (cervix epithelioma): more active than cisplatin of about a log. order
- cross resistance with cisplatin (L1210 resistant line): Lack of cross resistance with cisplatin
- median survival time (T/C %) (L1210 resistant line): over 160%
